For assay [1], the system named is reserpine-induced hypolocomotion in rats. In words: Reversal of reserpine-induced hypolocomotion in rats. The note with it: 10 µMol/kg s.c.; for Effect compared to reserpine control (ANOVA, Dunnett's analysis): horizontal activity, six rats.
The subject of a further assay is 6-OHDA lesioned rats. Put plainly: Rotational experiment with 6-OH-DA unilaterally lesioned rats. The assay is classed as in vivo, rat.
For another assay, the target named is cloned human D2 receptor (Homo sapiens, UniProt P14416). In words: Stimulation of [35S]GTPγS binding, D2 receptor expressed in CHO cells. The note with it: read-out: CHO-D2 %Emax. (In general: Binding of GTPγS marks nucleotide exchange on a G protein.)
The target of the next assay is cloned rat D3 receptor (Rattus norvegicus, UniProt P19020). In words: Inhibition of [3H]spiperone binding to D3 receptors expressed in HEK-293 cells. The note with it: ratio of Ki values.

cloned human D2 receptor, sequence (P14416 whole entry): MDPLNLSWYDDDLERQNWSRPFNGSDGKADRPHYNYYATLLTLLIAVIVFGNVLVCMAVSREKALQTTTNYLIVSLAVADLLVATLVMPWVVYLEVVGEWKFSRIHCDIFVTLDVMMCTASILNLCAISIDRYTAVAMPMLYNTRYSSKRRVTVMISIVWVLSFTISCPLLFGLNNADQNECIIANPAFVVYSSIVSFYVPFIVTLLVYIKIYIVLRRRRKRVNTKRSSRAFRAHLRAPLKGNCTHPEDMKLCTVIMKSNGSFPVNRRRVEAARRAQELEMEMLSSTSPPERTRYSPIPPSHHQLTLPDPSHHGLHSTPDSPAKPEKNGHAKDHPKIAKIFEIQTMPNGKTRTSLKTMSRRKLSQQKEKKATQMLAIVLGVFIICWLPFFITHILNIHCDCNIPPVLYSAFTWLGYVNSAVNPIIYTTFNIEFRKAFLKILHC

In the case of `CCCN(CCN1CCN(c2ccnc3ccccc23)CC1)[C@H]1CCc2nc(N)sc2C1` [(−)-24a, (S)-N^6-Propyl-N^6-(2-(4-(quinolin-4-yl)piperazin-1-yl)ethyl)-4,5,6,7-tetrahydrobenzo[d]thiazole-2,6-diamine], the “Effect compared to reserpine control (ANOVA, Dunnett's analysis)” value (“Effect compared to reserpine control” below) in assay [1] was “not statistically significant”. The “Reversal of reserpine-induced hypolocomotion” value in assay [1] (reserpine 5 mg/kg s.c. 18 h before, locomotion monitored 6 h) was “much less active compared to 24b and 24c”.

As for `CCCN(CCN1CCN(c2cccc3ncccc23)CC1)[C@H]1CCc2nc(N)sc2C1` [(−)-24b, (S)-N^6-Propyl-N^6-(2-(4-(quinolin-5-yl)piperazin-1-yl)ethyl)-4,5,6,7-tetrahydrobenzo[d]thiazole-2,6-diamine], in the assay on 6-OHDA lesioned rats (5 µMol/kg s.c.), the “Time of peak effect (rotations)” value is reported as “around 5 h” and the “Total rotations (contralateral)” value turned out to be 2295. Moreover, in the assay on 6-OHDA lesioned rats (10 µMol/kg s.c.), the “Time of peak effect (rotations)” value is reported as “around 7.5 h” and the “Total rotations (contralateral)” value amounted to 2648. Besides, the “Effect compared to reserpine control” value in assay [1] is recorded as “significantly different”.

One may read the Emax as the maximal effect, on the per cent scale that the assay sets. Take `CCCN(CCN1CCN(c2nccc3ccccc23)CC1)[C@H]1CCc2nc(N)sc2C1` [(−)-24c, (S)-N^6-(2-(4-(Isoquinolin-1-yl)piperazin-1-yl)ethyl)-N^6-propyl-4,5,6,7-tetrahydrobenzo[d]-thiazole-2,6-diamine]: the “Total rotations (contralateral)” value with 6-OHDA lesioned rats (5 µMol/kg s.c.) is 2805. In addition, in the assay on 6-OHDA lesioned rats (10 µMol/kg s.c.), the “Time of peak effect (rotations)” value is “about 7 h” and the “Total rotations (contralateral)” value came out at 3688. The Emax at cloned human D2 receptor came to 88.4 ± 3.9%. The “Effect compared to reserpine control” value in assay [1] is on record as “significantly different”.

For the compound `CCCN(CCN1CCN(c2ccc(-c3ccccc3)cc2)CC1)[C@H]1CCc2nc(N)sc2C1` [Compound 2], the Emax on cloned human D2 receptor amounted to 119 ± 6%.

Turning to `CCCN(CCN1CCN(c2ccnc3ccccc23)CC1)C1CCc2c(O)cccc2C1` (stereo not shown) [Compound 20d, 6-(Propyl(2-(4-(quinolin-4-yl)piperazin-1-yl)ethyl)amino)-5,6,7,8-tetrahydronaphthalen-1-ol], at cloned rat D3 receptor, the D2L/D3 is recorded as […].

In the case of `CCCN(CCC)CCc1cccc2c1CC(=O)N2` [Ropinirole, reference compound], the maximal effect (Emax) on cloned human D2 receptor came out at 83.9 ± 0.3%. The “Effect compared to reserpine control” value in assay [1] is “significantly different”.

These data come from PMC2818879 (Journal of medicinal chemistry, 2010).
